# Patent US20130190407A1, “CALCIUM RECEPTOR-ACTIVE MOLECULES” (NPS Pharmaceuticals, Inc., priority 1991, published 2013)
# Tests used:
# [1] = system: Bovine parathyroid cells; format: cell-based; conditions: 10 μM isoproterenol 15 min; no pertussis toxin; 2.0 mM Ca2+, 200 μM spermine, 30 μM neomycin B, 2 μg/ml protamine; mean ± SEM
# Method: This section describes measuring cyclic AMP levels. Cells were incubated as above for PTH secretion studies and at the end of the incubation, a 0.15-ml sample was taken and transferred to 0.85 ml of hot (70° C.) water and heated at this temperature for 5-10 minutes. The tubes were subsequently frozen and thawed several times and the cellular debris sedimented by centrifugation. Portions of the supernatant were acetylated and cyclic AMP concentrations determined by radioimmunoassay.
# Bovine parathyroid cells were cultured for 16 hours with or without 100 ng/ml pertussis toxin. […] Each value is the mean±SEM of three experiments.
# [2] = biological target: T1, calcium receptor (Bos taurus, UniProt P35384); assay: 45Ca2+ release from Xenopus oocytes injected with bovine parathyroid mRNA; format: cell-based; conditions: 10 mM for 20 min, compared to mock challenge with buffer
# T1 construct: Whole pieces of gland were used to prepare mRNA that directs the expression of the calcium receptor in Xenopus oocytes; expressed in transfected cells; host or cells: Xenopus laevis oocytes injected with total poly(A)+ mRNA from bovine parathyroid glands
# T1 sequence (P35384 20-1085): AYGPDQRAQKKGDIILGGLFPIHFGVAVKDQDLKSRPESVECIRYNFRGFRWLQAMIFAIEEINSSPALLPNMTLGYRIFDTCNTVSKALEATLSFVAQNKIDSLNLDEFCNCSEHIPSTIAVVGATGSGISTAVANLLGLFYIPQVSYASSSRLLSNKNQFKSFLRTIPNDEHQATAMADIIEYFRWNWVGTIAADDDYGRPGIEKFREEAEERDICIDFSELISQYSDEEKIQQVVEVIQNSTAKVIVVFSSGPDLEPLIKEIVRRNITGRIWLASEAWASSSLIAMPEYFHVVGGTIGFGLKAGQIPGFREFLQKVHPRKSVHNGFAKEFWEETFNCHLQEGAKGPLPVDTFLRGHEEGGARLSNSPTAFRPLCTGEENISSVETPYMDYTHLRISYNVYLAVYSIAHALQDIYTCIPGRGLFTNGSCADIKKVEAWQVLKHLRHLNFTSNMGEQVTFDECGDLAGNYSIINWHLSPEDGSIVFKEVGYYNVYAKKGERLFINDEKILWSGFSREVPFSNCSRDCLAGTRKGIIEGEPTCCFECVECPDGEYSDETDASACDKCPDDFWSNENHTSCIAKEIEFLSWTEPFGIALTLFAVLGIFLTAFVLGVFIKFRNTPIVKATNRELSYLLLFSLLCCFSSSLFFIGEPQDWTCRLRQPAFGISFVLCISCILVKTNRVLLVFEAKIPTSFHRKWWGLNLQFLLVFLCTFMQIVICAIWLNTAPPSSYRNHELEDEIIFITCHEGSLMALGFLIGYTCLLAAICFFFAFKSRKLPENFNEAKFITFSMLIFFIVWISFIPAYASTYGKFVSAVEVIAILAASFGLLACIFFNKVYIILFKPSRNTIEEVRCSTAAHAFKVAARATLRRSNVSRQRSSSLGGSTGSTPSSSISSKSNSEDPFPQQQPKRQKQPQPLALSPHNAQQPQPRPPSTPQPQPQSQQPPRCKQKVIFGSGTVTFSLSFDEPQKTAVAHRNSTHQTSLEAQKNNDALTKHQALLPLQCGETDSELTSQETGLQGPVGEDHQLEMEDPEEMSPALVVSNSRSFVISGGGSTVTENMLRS
# Source text: For example, we have been able to detect calcium receptor expression in oocytes by measuring ^45Ca^2+ mobilization. […] Prior to being stimulated, oocytes were loaded with ^45Ca^2+. […] The assay is sensitive enough for use in cloning the calcium receptor, and has the advantage of a higher throughput than the electrophysiological measurement of Ca^2+-activated Cl^− current.
smiles,measurement,setting,value
"NC[C@@H]1O[C@H](O[C@H]2[C@@H](O)[C@H](O[C@@H]3[C@@H](O)[C@H](N)C[C@H](N)[C@H]3O[C@H]3O[C@H](CN)[C@@H](O)[C@H](O)[C@H]3N)O[C@@H]2CO)[C@H](N)[C@@H](O)[C@@H]1O [Neomycin B, neomycin B]","cyclic AMP (% of control), control",[1],28 ± 8 % of control
same,increase in 45Ca2+ release,[2],76%
